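Following 48 hours of exposure in 96-well plates, responses at five concentrations were used to interpolate endpoints linearly. GI50 = concentration required for 50% inhibition of growth. TGI denotes the concentration required for complete inhibition of growth.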
How the values were obtained:
Assay in all cases: NCI tumour cell line growth inhibition, 48 h
HCT-15 colon = system: HCT-15 colon
BT-549 breast = system: BT-549 breast
CCRF-CEM leukemia = system: CCRF-CEM leukemia
SF-539 CNS = system: SF-539 CNS
MALME-3M melanoma = system: MALME-3M melanoma
HS 578T breast = system: HS 578T breast
NCI-H23 lung = system: NCI-H23 lung
SR leukemia = system: SR leukemia
M14 melanoma = system: M14 melanoma
K-562 leukemia = system: K-562 leukemia
IGROV1 ovarian = system: IGROV1 ovarian
SNB-75 CNS = system: SNB-75 CNS
UO-31 renal = system: UO-31 renal
SN12C renal = system: SN12C renal
T-47D breast = system: T-47D breast
RPMI-8226 leukemia = system: RPMI-8226 leukemia
HL-60(TB) leukemia = system: HL-60(TB) leukemia
HOP-92 NSCLC = system: HOP-92 NSCLC
NCI-H460 lung = system: NCI-H460 lung
UACC-257 melanoma = system: UACC-257 melanoma
KM12 colon = system: KM12 colon
OVCAR-4 ovarian = system: OVCAR-4 ovarian
MDA-MB-435 = system: MDA-MB-435
NCI/ADR-RES ovarian = system: NCI/ADR-RES ovarian
CAKI-1 renal = system: CAKI-1 renal
LOX IMVI melanoma = system: LOX IMVI melanoma
MCF7 breast = system: MCF7 breast
A498 renal = system: A498 renal
TK-10 renal = system: TK-10 renal
SF-268 CNS = system: SF-268 CNS
MOLT-4 leukemia = system: MOLT-4 leukemia
RXF 393 renal = system: RXF 393 renal
SK-OV-3 ovarian = system: SK-OV-3 ovarian
OVCAR-8 ovarian = system: OVCAR-8 ovarian
EKVX NSCLC = system: EKVX NSCLC
MDA-MB-231 breast = system: MDA-MB-231 breast
PC-3 prostate = system: PC-3 prostate
A549 NSCLC = system: A549 NSCLC
SNB-19 CNS = system: SNB-19 CNS
SF-295 CNS = system: SF-295 CNS
SW-620 colon = system: SW-620 colon
HCT-116 colon = system: HCT-116 colon
SK-MEL-5 melanoma = system: SK-MEL-5 melanoma
U251 CNS = system: U251 CNS
HOP-62 NSCLC = system: HOP-62 NSCLC
UACC-62 melanoma = system: UACC-62 melanoma
HCC-2998 colon = system: HCC-2998 colon
ACHN renal = system: ACHN renal
OVCAR-5 ovarian = system: OVCAR-5 ovarian
DU-145 prostate = system: DU-145 prostate
SK-MEL-28 melanoma = system: SK-MEL-28 melanoma
NCI-H226 lung = system: NCI-H226 lung
COLO 205 colon = system: COLO 205 colon
SK-MEL-2 melanoma = system: SK-MEL-2 melanoma
786-0 renal = system: 786-0 renal
HT29 colon = system: HT29 colon
NCI-H522 lung = system: NCI-H522 lung

## Oc1ccccc1-c1nnc(SCc2ccc(O)c3ncccc23)n1-c1ccccc1
HCT-15 colon
  GI50: 323 nM
  TGI: > 100000 nM
BT-549 breast
  GI50: 494 nM
  TGI: > 100000 nM
CCRF-CEM leukemia
  GI50: 379 nM
  TGI: > 100000 nM
SF-539 CNS
  GI50: 438 nM
  TGI: 13700 nM
MALME-3M melanoma
  GI50: 806 nM
  TGI: 7890 nM
HS 578T breast
  GI50: 357 nM
  TGI: > 100000 nM
NCI-H23 lung
  GI50: 412 nM
  TGI: > 100000 nM
SR leukemia
  GI50: 345 nM
  TGI: > 100000 nM
M14 melanoma
  GI50: 418 nM
K-562 leukemia
  GI50: 270 nM
  TGI: > 100000 nM
IGROV1 ovarian
  GI50: 406 nM
  TGI: > 100000 nM
SNB-75 CNS
  GI50: 416 nM
  TGI: > 58800 nM
UO-31 renal
  GI50: 291 nM
  TGI: 2480 nM
SN12C renal
  GI50: 347 nM
  TGI: 52700 nM
T-47D breast
  GI50: 344 nM
  TGI: > 100000 nM
RPMI-8226 leukemia
  GI50: 399 nM
  TGI: > 100000 nM
HL-60(TB) leukemia
  GI50: 326 nM
  TGI: 2380 nM
HOP-92 NSCLC
  GI50: 106 nM
  TGI: 654 nM
NCI-H460 lung
  GI50: 372 nM
  TGI: > 100000 nM
UACC-257 melanoma
  GI50: 514 nM
  TGI: > 26800 nM
KM12 colon
  GI50: 485 nM
  TGI: > 75300 nM
OVCAR-4 ovarian
  GI50: 641 nM
  TGI: > 100000 nM
MDA-MB-435
  GI50: 402 nM
  TGI: > 100000 nM
NCI/ADR-RES ovarian
  GI50: 279 nM
  TGI: > 100000 nM
CAKI-1 renal
  GI50: 382 nM
  TGI: 24600 nM
LOX IMVI melanoma
  GI50: 350 nM
  TGI: > 35300 nM
MCF7 breast
  GI50: 310 nM
  TGI: > 100000 nM
A498 renal
  GI50: 1850 nM
  TGI: 7440 nM
TK-10 renal
  GI50: 417 nM
  TGI: > 100000 nM
SF-268 CNS
  GI50: 475 nM
  TGI: > 100000 nM
MOLT-4 leukemia
  GI50: 434 nM
  TGI: > 100000 nM
RXF 393 renal
  GI50: 666 nM
  TGI: 80200 nM
SK-OV-3 ovarian
  GI50: 376 nM
  TGI: > 19700 nM
OVCAR-8 ovarian
  GI50: 375 nM
  TGI: > 41500 nM
EKVX NSCLC
  GI50: 437 nM
  TGI: 9810 nM
MDA-MB-231 breast
  GI50: 432 nM
  TGI: 24200 nM
PC-3 prostate
  GI50: 488 nM
  TGI: > 100000 nM
A549 NSCLC
  GI50: 441 nM
  TGI: > 100000 nM
SNB-19 CNS
  GI50: 378 nM
  TGI: > 100000 nM
SF-295 CNS
  GI50: 347 nM
  TGI: > 53800 nM
SW-620 colon
  GI50: 429 nM
  TGI: > 100000 nM
HCT-116 colon
  GI50: 325 nM
  TGI: > 100000 nM
SK-MEL-5 melanoma
  GI50: 349 nM
  TGI: 1530 nM
U251 CNS
  GI50: 363 nM
  TGI: > 100000 nM
HOP-62 NSCLC
  GI50: 377 nM
  TGI: > 21000 nM
UACC-62 melanoma
  GI50: 426 nM
  TGI: 2540 nM
HCC-2998 colon
  GI50: 552 nM
  TGI: > 95200 nM
ACHN renal
  GI50: 331 nM
  TGI: 26300 nM
OVCAR-5 ovarian
  GI50: 2110 nM
  TGI: > 100000 nM
DU-145 prostate
  GI50: 498 nM
  TGI: > 90800 nM
SK-MEL-28 melanoma
  GI50: 543 nM
  TGI: > 100000 nM
NCI-H226 lung
  GI50: 1770 nM
  TGI: > 100000 nM
COLO 205 colon
  GI50: 4010 nM
  TGI: 32000 nM
SK-MEL-2 melanoma
  GI50: 361 nM
786-0 renal
  GI50: 513 nM
  TGI: 12000 nM
HT29 colon
  GI50: 3620 nM
  TGI: > 51400 nM

## Oc1ccc(CSc2nnc(-c3ccccc3)o2)c2cccnc12
HCT-15 colon
  GI50: 797 nM
  TGI: > 100000 nM
BT-549 breast
  GI50: 923 nM
  TGI: > 100000 nM
CCRF-CEM leukemia
  GI50: 1130 nM
  TGI: > 100000 nM
SF-539 CNS
  GI50: 1490 nM
  TGI: 15800 nM
MALME-3M melanoma
  GI50: 2800 nM
  TGI: > 100000 nM
HS 578T breast
  GI50: 721 nM
  TGI: > 100000 nM
NCI-H23 lung
  GI50: 2440 nM
  TGI: 14000 nM
SR leukemia
  GI50: 873 nM
  TGI: > 100000 nM
K-562 leukemia
  GI50: 2050 nM
  TGI: > 100000 nM
IGROV1 ovarian
  GI50: 2420 nM
  TGI: > 100000 nM
SNB-75 CNS
  GI50: 1470 nM
  TGI: 15600 nM
UO-31 renal
  GI50: 1560 nM
  TGI: 7470 nM
SN12C renal
  GI50: 2640 nM
  TGI: > 100000 nM
T-47D breast
  GI50: 2550 nM
  TGI: > 100000 nM
NCI-H522 lung
  GI50: 2330 nM
  TGI: > 100000 nM
RPMI-8226 leukemia
  GI50: 772 nM
  TGI: > 100000 nM
HL-60(TB) leukemia
  GI50: 1390 nM
  TGI: 6620 nM
HOP-92 NSCLC
  GI50: 499 nM
  TGI: 5360 nM
NCI-H460 lung
  GI50: 527 nM
  TGI: > 100000 nM
UACC-257 melanoma
  GI50: 2620 nM
  TGI: 8920 nM
KM12 colon
  GI50: 724 nM
  TGI: > 100000 nM
OVCAR-4 ovarian
  GI50: 4340 nM
  TGI: > 100000 nM
MDA-MB-435
  GI50: 1080 nM
  TGI: > 100000 nM
CAKI-1 renal
  GI50: 2870 nM
  TGI: > 100000 nM
LOX IMVI melanoma
  GI50: 1560 nM
  TGI: 11300 nM
MCF7 breast
  GI50: 2450 nM
  TGI: > 100000 nM
A498 renal
  GI50: 4100 nM
  TGI: > 100000 nM
TK-10 renal
  GI50: 2520 nM
  TGI: 9860 nM
SF-268 CNS
  GI50: 920 nM
  TGI: > 100000 nM
MOLT-4 leukemia
  GI50: 2030 nM
  TGI: > 100000 nM
RXF 393 renal
  GI50: 3270 nM
  TGI: 97200 nM
SK-OV-3 ovarian
  GI50: 2870 nM
  TGI: 15000 nM
OVCAR-8 ovarian
  GI50: 1770 nM
  TGI: > 100000 nM
EKVX NSCLC
  GI50: 2620 nM
  TGI: > 100000 nM
MDA-MB-231 breast
  GI50: 4010 nM
  TGI: > 100000 nM
PC-3 prostate
  GI50: 1030 nM
  TGI: > 100000 nM
A549 NSCLC
  GI50: 2690 nM
  TGI: > 100000 nM
SNB-19 CNS
  GI50: 817 nM
  TGI: 19300 nM
SF-295 CNS
  GI50: 1390 nM
  TGI: 21000 nM
SW-620 colon
  GI50: 2570 nM
  TGI: > 100000 nM
HCT-116 colon
  GI50: 1650 nM
  TGI: > 100000 nM
SK-MEL-5 melanoma
  GI50: 1830 nM
  TGI: 6400 nM
U251 CNS
  GI50: 783 nM
  TGI: > 100000 nM
HOP-62 NSCLC
  GI50: 2330 nM
  TGI: 30600 nM
UACC-62 melanoma
  GI50: 2190 nM
  TGI: 6010 nM
HCC-2998 colon
  GI50: 2260 nM
  TGI: > 100000 nM
ACHN renal
  GI50: 2030 nM
  TGI: 5890 nM
OVCAR-5 ovarian
  GI50: 6650 nM
  TGI: > 100000 nM
DU-145 prostate
  GI50: 3410 nM
  TGI: > 100000 nM
SK-MEL-28 melanoma
  GI50: 2290 nM
  TGI: > 100000 nM
NCI-H226 lung
  GI50: 3780 nM
  TGI: > 100000 nM
COLO 205 colon
  GI50: 59300 nM
  TGI: > 100000 nM
SK-MEL-2 melanoma
  GI50: 2550 nM
  TGI: 29800 nM
786-0 renal
  GI50: 3140 nM
  TGI: 11900 nM
HT29 colon
  GI50: 6970 nM
  TGI: > 100000 nM
